SMILES strings stand for the structures.

The first test concerns the target T1, ZAP-70 (Homo sapiens, UniProt P43403).
T1 construct: endogenous in cells
T1 sequence (P43403 1-619): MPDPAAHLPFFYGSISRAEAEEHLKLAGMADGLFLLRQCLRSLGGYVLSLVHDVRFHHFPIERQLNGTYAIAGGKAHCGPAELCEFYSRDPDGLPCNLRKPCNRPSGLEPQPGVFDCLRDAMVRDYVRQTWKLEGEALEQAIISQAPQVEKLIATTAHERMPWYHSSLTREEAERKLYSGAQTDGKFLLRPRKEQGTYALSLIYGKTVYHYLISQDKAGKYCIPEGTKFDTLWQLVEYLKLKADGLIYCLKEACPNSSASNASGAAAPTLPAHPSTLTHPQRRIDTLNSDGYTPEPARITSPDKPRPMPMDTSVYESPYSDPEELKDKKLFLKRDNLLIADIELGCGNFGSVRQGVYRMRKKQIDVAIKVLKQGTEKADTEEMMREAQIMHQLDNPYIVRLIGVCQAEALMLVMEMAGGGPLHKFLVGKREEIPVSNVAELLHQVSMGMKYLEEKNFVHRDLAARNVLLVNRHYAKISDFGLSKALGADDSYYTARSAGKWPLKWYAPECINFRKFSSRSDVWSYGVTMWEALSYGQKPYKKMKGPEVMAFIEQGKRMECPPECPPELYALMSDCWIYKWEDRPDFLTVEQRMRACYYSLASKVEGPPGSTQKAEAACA
The test can be described thus: ZAP-70 kinobeads assay. As to conditions: cell lysate, dot blot with ZAP-70 antibody. The class given is binding. The protocol:
(§1) The compounds of the present invention as described in the previous examples were tested in the ZAP-70 kinobeads assay as described (EP-A 1862802 and WO-A 2007/137867). Briefly, test compounds (at various concentrations) and the affinity matrix with the immobilized aminopyrido-pyrimidine ligand 24 are added to cell lysate aliquots and allowed to bind to the proteins in the lysate sample. After the incubation time the beads with captured proteins are separated from the lysate. Bound proteins are then eluted and the presence ZAP-70 is detected and quantified using a specific antibody in a dot blot procedure and the Odyssey infrared detection system.
As a reminder, the IC50 is the point on the concentration scale where inhibition reaches its midpoint. Regarding `CCCCn1nc(C)cc1Nc1ncc(Cl)c(Nc2ccc(OC)cc2NS(C)(=O)=O)n1` [Example 86, N-(2-((2-((1-butyl-3-methyl-1H-pyrazol-5-yl)amino)-5-chloropyrimidin-4-yl)amino)-5-methoxyphenyl)methanesulfonamide], the IC50 was ≤ 100 nM.
Turning to `COc1ccc(Nc2nc(Nc3ccnn3CC(C)C)ncc2Cl)c(NS(C)(=O)=O)c1` [Example 98, N-(2-((5-chloro-2-((1-isobutyl-1H-pyrazol-5-yl)amino)pyrimidin-4-yl)amino)-5-methoxyphenyl)methanesulfonamide], the IC50 was 1000 to 10000 nM.
Compound `COc1ccc(Nc2nc(Nc3c(C)noc3C)ncc2Cl)c(NS(C)(=O)=O)c1` [Example 19, N-(2-(5-chloro-2-(3,5-dimethylisoxazol-4-ylamino)pyrimidin-4-ylamino)-5-methoxyphenyl)methanesulfonamide] showed an IC50 of 1000 to 10000 nM.
Still for that read-out and setting: as for `CCCn1nccc1Nc1ncc(Cl)c(Nc2ccc(OC)cc2NS(C)(=O)=O)n1` [Example 76, N-(2-((5-chloro-2-((1-propyl-1H-pyrazol-5-yl)amino)pyrimidin-4-yl)amino)-5-methoxyphenyl)methanesulfonamide], the figure is 100 to 1000 nM; as for `CCC(C)n1nc(C)cc1Nc1ncc(Cl)c(Nc2ccc(OC)cc2NS(C)(=O)=O)n1` (centres unmarked) [Example 27, N-(2-(2-(1-sec-butyl-3-methyl-1H-pyrazol-5-ylamino)-5-chloropyrimidin-4-ylamino)-5-methoxyphenyl)methanesulfonamide], 100 to 1000 nM.
Turning to `COc1ccc(Nc2nc(Nc3ccnn3CC3CC3)ncc2Cl)c(NS(C)(=O)=O)c1` [Example 60, N-(2-((5-chloro-2-((1-(cyclopropylmethyl)-1H-pyrazol-5-yl)amino)pyrimidin-4-yl)amino)-5-methoxyphenyl)methanesulfonamide], the IC50 is 100 to 1000 nM.

The target in a further test is T2, JAK3 (Homo sapiens, UniProt P52333).
T2 construct: endogenous in cells
T2 sequence (P52333 1-1124): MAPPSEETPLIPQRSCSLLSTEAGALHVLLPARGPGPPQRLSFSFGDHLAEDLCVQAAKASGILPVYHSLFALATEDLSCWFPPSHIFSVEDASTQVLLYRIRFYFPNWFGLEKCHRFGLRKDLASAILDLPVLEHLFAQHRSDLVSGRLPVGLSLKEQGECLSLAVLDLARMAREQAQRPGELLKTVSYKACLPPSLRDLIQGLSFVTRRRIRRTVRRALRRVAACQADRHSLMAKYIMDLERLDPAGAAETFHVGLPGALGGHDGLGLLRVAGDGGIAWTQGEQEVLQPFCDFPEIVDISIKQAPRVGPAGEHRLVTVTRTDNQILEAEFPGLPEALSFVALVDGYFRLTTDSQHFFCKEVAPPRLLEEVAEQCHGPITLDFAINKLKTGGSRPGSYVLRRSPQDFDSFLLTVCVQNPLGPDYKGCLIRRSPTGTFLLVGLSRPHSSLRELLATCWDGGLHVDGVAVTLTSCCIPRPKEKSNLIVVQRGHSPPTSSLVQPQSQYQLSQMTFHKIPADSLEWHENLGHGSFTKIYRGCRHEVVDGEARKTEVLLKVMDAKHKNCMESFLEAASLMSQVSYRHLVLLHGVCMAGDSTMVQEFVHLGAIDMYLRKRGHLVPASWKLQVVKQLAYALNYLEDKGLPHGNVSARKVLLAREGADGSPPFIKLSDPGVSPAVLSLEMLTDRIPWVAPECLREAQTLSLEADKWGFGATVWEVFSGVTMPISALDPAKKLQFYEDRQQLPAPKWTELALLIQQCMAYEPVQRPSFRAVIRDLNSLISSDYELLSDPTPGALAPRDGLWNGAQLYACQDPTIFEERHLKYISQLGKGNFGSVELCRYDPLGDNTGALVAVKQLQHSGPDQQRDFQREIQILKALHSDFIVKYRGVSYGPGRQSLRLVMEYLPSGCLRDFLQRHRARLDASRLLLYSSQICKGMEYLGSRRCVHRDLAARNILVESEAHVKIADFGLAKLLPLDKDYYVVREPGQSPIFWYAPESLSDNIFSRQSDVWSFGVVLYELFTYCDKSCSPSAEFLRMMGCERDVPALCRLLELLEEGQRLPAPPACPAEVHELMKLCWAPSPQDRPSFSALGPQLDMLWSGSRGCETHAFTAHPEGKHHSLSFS
The experiment in a line: JAK3 kinobeads assay. Conditions: cell lysate, dot blot with JAK3 specific antibody. The class given is binding. The protocol:
as §1
Compounds were tested by the procedure described in Example 102 but using a JAK3 specific antibody (Cell Signaling Technology, Inc., Danvers, US, catalogue number 3775) instead of a ZAP70 antibody.
As for `Cn1nc(Nc2ncc(Cl)c(Nc3ccccc3NS(C)(=O)=O)n2)cc1C(=O)NCCO` [Example 101, 3-((5-chloro-4-((2-(methylsulfonamido)phenyl)amino)pyrimidin-2-yl)amino)-N-(2-hydroxyethyl)-1-methyl-1H-pyrazole-5-carboxamide], the IC50 was ≤ 100 nM.
`Cc1cc(Nc2ncc(Cl)c(Nc3cccc(F)c3NS(C)(=O)=O)n2)nn1C` [Example 78, N-(2-((5-chloro-2-((1,5-dimethyl-1H-pyrazol-3-yl)amino)pyrimidin-4-yl)amino)-6-fluorophenyl)methanesulfonamide]: the IC50 lay in the range of 100 to 1000 nM.
With `CC(C)n1ccc(Nc2ncc(Cl)c(Nc3ccccc3NS(=O)(=O)C3CC3)n2)n1` [Example 54, N-(2-((5-chloro-2-((1-isopropyl-1H-pyrazol-3-yl)amino)pyrimidin-4-yl)amino)phenyl)cyclopropanesulfonamide], the IC50 was 1000 to 10000 nM.
`COc1nn(CC(F)F)cc1Nc1ncc(F)c(Nc2ccccc2NS(C)(=O)=O)n1` [Example 73, N-(2-((2-((1-(2,2-difluoroethyl)-3-methoxy-1H-pyrazol-4-yl)amino)-5-fluoropyrimidin-4-yl)amino)phenyl)methanesulfonamide] returned an IC50 of 100 to 1000 nM.
In turn, `COc1ccc(Nc2nc(Nc3cc(C(C)(C)C)nn3C)ncc2Cl)c(NS(C)(=O)=O)c1` [Example 10, N-(2-(2-(3-tert-butyl-1-methyl-1H-pyrazol-5-ylamino)-5-chloropyrimidin-4-ylamino)-5-methoxyphenyl)methanesulfonamide] came in with an IC50 of 1000 to 10000 nM.
`COc1ccc(Nc2nc(Nc3cc(C)n(C)n3)ncc2F)c(NS(C)(=O)=O)c1` [Example 47, N-(2-((2-((1,5-dimethyl-1H-pyrazol-3-yl)amino)-5-fluoropyrimidin-4-yl)amino)-5-methoxyphenyl)methanesulfonamide]: the IC50 is 100 to 1000 nM.
`CCn1nc(Nc2ncc(Cl)c(Nc3ccccc3NS(C)(=O)=O)n2)cc1C` [Example 59, N-(2-((5-chloro-2-((1-ethyl-5-methyl-1H-pyrazol-3-yl)amino)pyrimidin-4-yl)amino)phenyl)methanesulfonamide]: the IC50 was ≤ 100 nM.
`CC(C)n1ccc(Nc2ncc(Br)c(Nc3ccccc3NS(C)(=O)=O)n2)n1` [Example 49, N-(2-((5-bromo-2-((1-isopropyl-1H-pyrazol-3-yl)amino)pyrimidin-4-yl)amino)phenyl)methanesulfonamide]: the IC50 is ≤ 100 nM.
Consider `CS(=O)(=O)Nc1ccccc1Nc1nc(Nc2cn[nH]c2)ncc1Cl` [Example 25, N-(2-(2-(1H-pyrazol-4-ylamino)-5-chloropyrimidin-4-ylamino)phenyl)methanesulfonamide], for which the IC50 was ≤ 100 nM.
In the case of `Cn1ccc(Nc2ncc(Cl)c(Nc3cccc(F)c3NS(C)(=O)=O)n2)n1` [Example 70, N-(2-((5-chloro-2-((1-methyl-1H-pyrazol-3-yl)amino)pyrimidin-4-yl)amino)-6-fluorophenyl)methanesulfonamide], the IC50 was ≤ 100 nM.
Still for that read-out and setting: as for `COc1nn(CC(F)F)cc1Nc1ncc(Cl)c(Nc2ccccc2NS(C)(=O)=O)n1` [Example 80, N-(2-((5-chloro-2-((1-(2,2-difluoroethyl)-3-methoxy-1H-pyrazol-4-yl)amino)pyrimidin-4-yl)amino)phenyl)methanesulfonamide], the figure is ≤ 100 nM; as for `CS(=O)(=O)Nc1ccccc1Nc1nc(Nc2cnn(CCCC#N)c2)ncc1F` [Example 66, N-(2-((2-((1-(3-cyanopropyl)-1H-pyrazol-4-yl)amino)-5-fluoropyrimidin-4-yl)amino)phenyl)methanesulfonamide], ≤ 100 nM.
Still for that read-out and setting: as for `Cn1nc(Nc2ncc(Cl)c(Nc3ccccc3NS(C)(=O)=O)n2)cc1C(=O)O` [Example 92, 3-((5-chloro-4-((2-(methylsulfonamido)phenyl)amino)pyrimidin-2-yl)amino)-1-methyl-1H-pyrazole-5-carboxylic acid], the figure is ≤ 100 nM; as for `CCCn1ccc(Nc2ncc(Cl)c(Nc3cccc(F)c3NS(C)(=O)=O)n2)n1` [Example 79, N-(2-((5-chloro-2-((1-propyl-1H-pyrazol-3-yl)amino)pyrimidin-4-yl)amino)-6-fluorophenyl)methanesulfonamide], 100 to 1000 nM; as for `Cn1cc(Nc2ncc(Cl)c(Nc3ccccc3NS(=O)(=O)C3CC3)n2)cn1` [Example 58, N-(2-((5-chloro-2-((1-methyl-1H-pyrazol-4-yl)amino)pyrimidin-4-yl)amino)phenyl)cyclopropanesulfonamide], ≤ 100 nM.
The same measure, in the same setting: as for `CCS(=O)(=O)Nc1ccccc1Nc1nc(Nc2cc(C)n(C)n2)ncc1F` [Example 61, N-(2-((2-((1,5-dimethyl-1H-pyrazol-3-yl)amino)-5-fluoropyrimidin-4-yl)amino)phenyl)ethanesulfonamide], the figure is 1000 to 10000 nM; as for `CCNC(=O)c1cc(Nc2ncc(Cl)c(Nc3ccccc3NS(C)(=O)=O)n2)nn1C` [Example 100, 3-((5-chloro-4-((2-(methylsulfonamido)phenyl)amino)pyrimidin-2-yl)amino)-N-ethyl-1-methyl-1H-pyrazole-5-carboxamide], ≤ 100 nM.
